Experimental data from patent US20110294663A1, “Herbicidal composition for tolerant or resistant corn crops” (priority 2010, published 2011).

How the values were obtained:
Type in all cases: in vivo
[1] = system: corn (GA-tolerant); test: Greenhouse trial: crop plant compatibility
Method: (§1) The trials were carried out under greenhouse conditions (test pots, diameter 8 cm, spray application using 300 l of water/hectare, 2 repetitions, 6 to 8 plants per pot).
(§2) Scoring was by visual comparison of the treated with the untreated control pots (0-100% scale, 14 d after the application).

[2] = system: Setaria faberii; test: Greenhouse trial: herbicidal efficacy, Setaria faberii; details: Table 5; post-emergence, 1-3-leaf stage, scoring 14 days after treatment; g of ai/ha: A1.1 100; B1.1 5; C7 15; C13 2.5; C9 12.5 alone, 2.5 in combination
Method: as §1
(§3) Application was by post-emergence treatment; the species of the harmful plants and their stage of growth at the time of treatment are indicated in the individual results tables. The application rates of the herbicidally active compounds used on their own or in combinations are likewise listed in the individual results tables.
as §2
(§4) 4.2 Abbreviations used in Tables 4 to 8 application rate g/ai=application rate in grams of active compound per hectare • ai=active ingredient (of an active compound content of 100%) • GA=glufosinate-ammonium • GA-tolerant=corn which is tolerant to GA (GMO: LL corn) • E^C=expected value according to Colby, (E^C=A+B−A×B/100)= • =for ternary combinations: (A+B)+C−(A+B)×C/100 • Δ=difference (%) between observed value -%- vs. expected value (%) (observed value minus expected value) • examination: —observed values for (A), (B) and (A)+(B) in % • scoring: —observed value (%) greater>than E^C/E^A: ->synergism (+A) • —observed value (%) equal to =E^C/E^A->additive effect (+−Δ) • —observed value (%) smaller<than E^A/E^C->antagonism (−Δ)

[3] = system: Setaria viridis; test: Greenhouse trial: herbicidal efficacy, Setaria viridis; details: Table 6; post-emergence, 1-3-leaf stage, scoring 14 days after treatment; g of ai/ha: A1.1 100; B1.1 5; C3 5; C11 25
Method: as §1, §3, §2, §4

[4] = system: Pharbitis purpureum; test: Greenhouse trial: herbicidal efficacy, Pharbitis purpureum; details: Table 7; post-emergence, 1-leaf stage, scoring 14 days after treatment; g of ai/ha: A1.1 100; B1.1 5; C12 50
Method: as §1, §3, §2, §4

[5] = system: Eleusine indica; test: Greenhouse trial: herbicidal efficacy, Eleusine indica; details: Table 8; post-emergence, 1-2-leaf stage, scoring 14 days after treatment; g of ai/ha: A1.1 100; B1.1 5; C8 0.5; isoxadifen 100; cyprosulfamide 100; C′ = isoxadifen in r19, cyprosulfamide in r23
Method: as §1, §3, §2, §4

[6] = Table 4, post-emergence, 1-2-leaf stage, scoring 14 days after treatment, g of ai/ha: A1.1 100, B1.1 2.5 alone, 5 in combinations, C1 2.5, C2 1.25, C10 250, C4 50, C5 1, C6 2
[7] = Table 5, post-emergence, 1-3-leaf stage, scoring 14 days after treatment, g of ai/ha: A1.1 100, B1.1 5, C7 15, C13 2.5, C9 12.5 alone, 2.5 in combination
[8] = Table 8, post-emergence, 1-2-leaf stage, scoring 14 days after treatment, g of ai/ha: A1.1 100, B1.1 5, C8 0.5, isoxadifen 100, cyprosulfamide 100, C′ = isoxadifen in r19, cyprosulfamide in r23

CP(=O)(O)CCC(N)C(=O)O (centres unmarked) [(A1.1) GA, glufosinate-ammonium]
Damage to crop plants (%) corn (GA-tolerant) (≦15-20% acceptable) [1, 6]: 0% | Damage to crop plants (%) corn (GA-tolerant) (≦15-20% acceptable) [1, 7]: 0% | Damage to crop plants (%) corn (GA-tolerant) (≦15-20% acceptable) ([1]; Table 6, post-emergence, 1-3-leaf stage, scoring 14 days after treatment, g of ai/ha: A1.1 100, B1.1 5, C3 5, C11 25): 0% | Damage to crop plants (%) corn (GA-tolerant) (≦15-20% acceptable) ([1]; Table 7, post-emergence, 1-leaf stage, scoring 14 days after treatment, g of ai/ha: A1.1 100, B1.1 5, C12 50): 0% | Damage to crop plants (%) corn (GA-tolerant) (≦15-20% acceptable) [1, 8]: 0% | Herbicidal efficacy % Setaria faberii [2]: 10% | Herbicidal efficacy % Setaria viridis [3]: 5% | Herbicidal efficacy % Pharbitis purpureum [4]: 45%

COC(=O)c1csc(C)c1S(=O)(=O)NC(=O)n1nc(OC)n(C)c1=O [(C8) thiencarbazone-me, thiencarbazone-methyl]
Damage to crop plants (%) corn (GA-tolerant) (≦15-20% acceptable) [1, 8]: 0% | Herbicidal efficacy % Eleusine indica [5]: 10%

C#CCN1C(=O)COc2cc(F)c(N3C(=O)C4=C(CCCC4)C3=O)cc21 [(C5) flumioxazin, flumioxazin]
Damage to crop plants (%) corn (GA-tolerant) (≦15-20% acceptable) [1, 6]: 15%

N#Cc1cc(Br)c(O)c(Br)c1 [(C4) bromoxynil, bromoxynil]
Damage to crop plants (%) corn (GA-tolerant) (≦15-20% acceptable) [1, 6]: 0%

CCNc1nc(Cl)nc(NC(C)C)n1 [(C10) atrazin, atrazine]
Damage to crop plants (%) corn (GA-tolerant) (≦15-20% acceptable) [1, 6]: 0%

O=C(O)C1=NOC(c2ccccc2)(c2ccccc2)C1 [(C14) isoxadifen, isoxadifen]
Damage to crop plants (%) corn (GA-tolerant) (≦15-20% acceptable) [1, 8]: 0% | Herbicidal efficacy % Eleusine indica [5]: 0%

Cc1c(C(=O)c2cnn(C)c2O)ccc(S(C)(=O)=O)c1C1=NOCC1 [(C13) topramezone, topramezone]
Damage to crop plants (%) corn (GA-tolerant) (≦15-20% acceptable) [1, 7]: 0% | Herbicidal efficacy % Setaria faberii [2]: 10%

COc1ccccc1C(=O)NS(=O)(=O)c1ccc(C(=O)NC2CC2)cc1 [(C15) cyprosulfamide, cyprosulfamide]
Damage to crop plants (%) corn (GA-tolerant) (≦15-20% acceptable) [1, 8]: 0% | Herbicidal efficacy % Eleusine indica [5]: 0%

CC(C)N(C(=O)COc1nnc(C(F)(F)F)s1)c1ccc(F)cc1 [(C11) flufenacet, flufenacet]
Damage to crop plants (%) corn (GA-tolerant) (≦15-20% acceptable) ([1]; in vivo): 0% | Herbicidal efficacy % Setaria viridis [3]: 0%

CS(=O)(=O)c1cc(C(F)(F)F)ccc1C(=O)c1cnoc1C1CC1 [(C3) isoxaflutole, isoxaflutole]
Damage to crop plants (%) corn (GA-tolerant) (≦15-20% acceptable) ([1]; in vivo): 15% | Herbicidal efficacy % Setaria viridis [3]: 0%

CS(=O)(=O)c1ccc(C(=O)C2C(=O)CCCC2=O)c(Cl)c1COCC(F)(F)F [(C9) tembotrione, tembotrione]
Herbicidal efficacy % Setaria faberii [2]: 10%

CCOCN(C(=O)CCl)c1c(C)cccc1CC [(C12) acetochlor, acetochlor]
Damage to crop plants (%) corn (GA-tolerant) (≦15-20% acceptable) ([1]; in vivo): 0% | Herbicidal efficacy % Pharbitis purpureum [4]: 10%

COC(=O)c1nc(-c2ccc(Cl)c(OC)c2F)cc(N)c1Cl [(B1.1), methyl 4-amino-3-chloro-6-(4-chloro-2-fluoro-3-methoxyphenyl)pyridine-2-carboxylate]
Damage to crop plants (%) corn (GA-tolerant) (≦15-20% acceptable) ([1]; in vivo): 0% | Herbicidal efficacy % Setaria faberii [2]: 96% | Herbicidal efficacy % Setaria viridis [3]: 90% | Herbicidal efficacy % Pharbitis purpureum [4]: 45%

CS(=O)(=O)c1ccc(C(=O)C2C(=O)CCCC2=O)c([N+](=O)[O-])c1 [(C7) mesotrione, mesotrione]
Damage to crop plants (%) corn (GA-tolerant) (≦15-20% acceptable) [1, 7]: 0% | Herbicidal efficacy % Setaria faberii [2]: 0%
